Results: US20240287106A1, “Method for Producing Fluorescent Probe Library Using Solid-Phase Extraction and Method of Measuring Enzyme Activity Using Same” (The University of Tokyo, priority 2021, published 2024)

Key:
Format in all cases: biochemical
CD13 = target: T1, CD13 (Homo sapiens, UniProt P15144); test: Measurement of human plasma sample using CD13 probe in microdevice; settings: 50 μM probe, 1000 fold dilution plasma; for Fluorescence intensity of human plasma samples, patient with pancreatic cancer compared with healthy subject (CD13 probe): microdevice; for AUC of ROC curve for the number of wells in which CD13 is considered to be enclosed: plasma of 30 patients with pancreatic cancer vs 30 healthy subjects, 37° C. 4 hours, wells >= Average+3SD of background fluorescence
T1 construct: human plasma samples collected from 30 patients with pancreatic cancer and 30 healthy subjects; from tissue; host or cells: human plasma (pancreatic cancer patients and healthy subjects)
T1 sequence (P15144 whole entry): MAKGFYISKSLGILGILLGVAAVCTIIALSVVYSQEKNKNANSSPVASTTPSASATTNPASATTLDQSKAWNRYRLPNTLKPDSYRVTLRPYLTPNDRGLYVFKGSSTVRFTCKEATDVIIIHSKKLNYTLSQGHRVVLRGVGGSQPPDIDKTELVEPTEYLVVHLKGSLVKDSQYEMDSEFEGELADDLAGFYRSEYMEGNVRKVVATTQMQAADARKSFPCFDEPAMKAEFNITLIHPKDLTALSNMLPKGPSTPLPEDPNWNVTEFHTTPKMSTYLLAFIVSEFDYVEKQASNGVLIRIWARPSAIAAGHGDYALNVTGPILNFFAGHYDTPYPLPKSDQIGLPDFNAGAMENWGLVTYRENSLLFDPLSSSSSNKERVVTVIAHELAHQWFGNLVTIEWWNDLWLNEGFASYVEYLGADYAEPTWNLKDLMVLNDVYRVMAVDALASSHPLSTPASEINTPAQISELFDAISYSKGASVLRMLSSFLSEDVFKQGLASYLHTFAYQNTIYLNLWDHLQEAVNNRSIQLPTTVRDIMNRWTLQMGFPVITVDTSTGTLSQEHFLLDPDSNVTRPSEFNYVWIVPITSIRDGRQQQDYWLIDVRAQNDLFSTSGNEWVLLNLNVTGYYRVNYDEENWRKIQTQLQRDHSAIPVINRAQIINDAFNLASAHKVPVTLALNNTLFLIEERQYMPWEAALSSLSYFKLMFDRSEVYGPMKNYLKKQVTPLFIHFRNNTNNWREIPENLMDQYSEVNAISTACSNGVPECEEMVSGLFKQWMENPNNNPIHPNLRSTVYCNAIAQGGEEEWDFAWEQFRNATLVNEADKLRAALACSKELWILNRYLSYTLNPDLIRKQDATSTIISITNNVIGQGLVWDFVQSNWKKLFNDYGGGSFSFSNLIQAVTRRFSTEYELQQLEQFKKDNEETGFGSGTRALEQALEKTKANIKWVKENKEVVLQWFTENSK
Protocol: 1. Arg-PMAC as a CD13 probe was diluted with an assay buffer to 100 μM. The composition of the buffer is 100 mM HEPES-NaOH (pH 7.4), 1 mM MgCl2, 1 mM DTT, 3 mM TritonX-100.
(§1) 2. Next, human plasma samples collected from 30 patients with pancreatic cancer and 30 healthy subjects were diluted 500 times with the above assay buffer, and mixed in an equal amount with the diluted solution of the CD13 probe. At this time, the final concentrations are 50 μM for the CD13 probe and 1000 fold dilution for the human plasma sample.
(§2) 3. The mixed solution was then added to a microdevice, followed by the addition of sealing oil to enclose the solution in each well.
4. The microdevice in which the solution was enclosed was incubated at 37° C. for 4 hours, and then the fluorescence intensity of each well was measured with a fluorescence microscope.

DPP4 = target: T2, DPP4 (Homo sapiens, UniProt P27487); test: Measurement of human plasma sample using DPP4 probe in microdevice; settings: 50 μM probe, 1000 fold dilution plasma
T2 construct: human plasma samples collected from 30 patients with pancreatic cancer and 30 healthy subjects; from tissue; host or cells: human plasma (pancreatic cancer patients and healthy subjects)
T2 sequence (P27487 39-766 limits assumed): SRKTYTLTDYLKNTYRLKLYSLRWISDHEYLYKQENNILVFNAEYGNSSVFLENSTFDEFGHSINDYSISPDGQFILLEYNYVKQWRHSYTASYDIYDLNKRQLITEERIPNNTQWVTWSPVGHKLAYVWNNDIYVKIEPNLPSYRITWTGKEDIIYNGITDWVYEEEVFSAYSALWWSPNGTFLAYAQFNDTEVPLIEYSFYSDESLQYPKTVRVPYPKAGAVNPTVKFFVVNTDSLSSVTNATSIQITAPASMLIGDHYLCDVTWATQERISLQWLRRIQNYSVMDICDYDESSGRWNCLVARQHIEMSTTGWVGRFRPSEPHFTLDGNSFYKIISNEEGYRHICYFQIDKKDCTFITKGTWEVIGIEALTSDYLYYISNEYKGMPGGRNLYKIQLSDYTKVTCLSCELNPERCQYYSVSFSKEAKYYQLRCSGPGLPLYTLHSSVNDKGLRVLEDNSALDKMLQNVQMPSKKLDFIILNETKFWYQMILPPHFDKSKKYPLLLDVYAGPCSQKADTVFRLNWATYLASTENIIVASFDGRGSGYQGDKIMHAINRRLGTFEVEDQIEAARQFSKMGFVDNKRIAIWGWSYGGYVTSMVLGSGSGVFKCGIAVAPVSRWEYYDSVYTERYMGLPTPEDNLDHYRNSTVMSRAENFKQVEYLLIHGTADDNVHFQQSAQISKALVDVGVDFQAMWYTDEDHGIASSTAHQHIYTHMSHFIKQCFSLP
Protocol: 1. Glu-Pro-PMAC as a DPP4 probe was diluted with an assay buffer to 100 μM. The composition of the buffer is 100 mM HEPES-NaOH (pH 7.4), 1 mM MgCl2, 1 mM DTT, 3 mM TritonX-100.
as §1, with “DPP4” for “CD13”
as §2
4. The microdevice in which the solution was enclosed was incubated at 25° C. for 2 hours, and then the fluorescence intensity of each well was measured with a fluorescence microscope.

ENPP3 [1] = target: T3, ENPP3 (Homo sapiens, UniProt O14638); test: Activity measurement using a purified enzyme of ENPP3 on a plate reader; settings: Tris-HCl buffer pH 9.3, 1 mM MgCl2, 0.5% CHAPS, 10 μM probe, ENPP3 9.9 μg/mL
T3 sequence (O14638 1-875): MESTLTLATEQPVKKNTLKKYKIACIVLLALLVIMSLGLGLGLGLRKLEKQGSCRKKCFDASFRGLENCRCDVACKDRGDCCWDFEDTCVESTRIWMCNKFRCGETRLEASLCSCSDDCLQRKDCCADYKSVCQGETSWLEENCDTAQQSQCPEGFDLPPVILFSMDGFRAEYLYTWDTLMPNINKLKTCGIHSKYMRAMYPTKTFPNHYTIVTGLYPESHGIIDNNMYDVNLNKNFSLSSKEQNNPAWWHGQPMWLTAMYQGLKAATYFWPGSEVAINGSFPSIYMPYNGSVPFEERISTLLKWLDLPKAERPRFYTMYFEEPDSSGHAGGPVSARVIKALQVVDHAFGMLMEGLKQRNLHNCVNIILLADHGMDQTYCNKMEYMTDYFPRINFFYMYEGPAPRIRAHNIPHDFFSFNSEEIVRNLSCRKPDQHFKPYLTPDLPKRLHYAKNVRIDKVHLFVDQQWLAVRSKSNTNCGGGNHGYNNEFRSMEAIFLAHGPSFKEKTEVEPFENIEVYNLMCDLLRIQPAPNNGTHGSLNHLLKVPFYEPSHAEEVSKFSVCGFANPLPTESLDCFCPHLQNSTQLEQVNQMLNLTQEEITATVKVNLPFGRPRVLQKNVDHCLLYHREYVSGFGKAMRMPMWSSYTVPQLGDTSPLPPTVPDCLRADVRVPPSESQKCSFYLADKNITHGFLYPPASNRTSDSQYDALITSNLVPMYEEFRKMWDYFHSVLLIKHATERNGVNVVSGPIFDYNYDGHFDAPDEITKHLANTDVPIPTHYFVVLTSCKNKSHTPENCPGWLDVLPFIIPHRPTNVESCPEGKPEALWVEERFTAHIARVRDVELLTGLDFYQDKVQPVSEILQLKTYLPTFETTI
Protocol: The activity measurement of PMUM-dCMP obtained in Synthesis Example 7 was performed using a purified enzyme of ENPP3 on a plate reader.
The assay was performed with a Tris-HCl buffer (pH 9.3) containing 1 mM MgCl2, 0.5% w/w CHAPS, 10 μM PMUM-dCMP, and ENPP3 (recombinant, 9.9 μg/mL).

ENPP3 [2] = target: T3, ENPP3; test: Measurement of human plasma sample using ENPP probe in microdevice; set-up: human plasma samples collected from six patients with pancreatic cancer and six healthy subjects; from tissue; host or cells: human plasma (pancreatic cancer patients and healthy subjects)
Protocol: 1. PMUM-dCMP as an ENPP probe was diluted with an assay buffer to 200 μM. The composition of the assay buffer is 100 mM Tris-HCl (pH 9.3), 1 mM MgCl2, 0.5% (w/v) CHAPS.
as §1, with “six” for “30”, “250” for “500”, “ENPP” for “CD13”, “100” for “50”, “500” for “1000”
as §2
4. The microdevice in which the solution was enclosed was incubated at 25° C. for 40 minutes, and then the fluorescence intensity of each well was measured with a fluorescence microscope.
Specifically, in this example, an ROC curve for determination based on the enzyme activity of ENPP determined based on the number of wells with 2500 AU or more is created, and when a threshold is subtracted at the time when the number of wells with 2500 AU or more is 23, the sensitivity is 83% and the specificity is 100% (FIG. 16). It is possible to determine pancreatic cancer by such an ROC curve.

[3] = threshold: number of wells with 2500 AU or more is 23

## N=C(N)NCCC[C@H](N)C(=O)Nc1ccc2c(CP(=O)(O)O)cc(=O)oc2c1 [Arg-PMAC]
CD13
  Fluorescence intensity of human plasma samples, patient with pancreatic cancer compared with healthy subject (CD13 probe): a significant difference was observed
  AUC of ROC curve for the number of wells in which CD13 is considered to be enclosed: 0.554

## N[C@@H](CCC(=O)O)C(=O)N1CCC[C@@H]1C(=O)Nc1ccc2c(CP(=O)(O)O)cc(=O)oc2c1 [Glu-Pro-PMAC]
DPP4; microdevice
  Fluorescence intensity of human plasma samples, patient with pancreatic cancer compared with healthy subject (DPP4 probe): a significant difference was observed
DPP4; plasma of 30 patients with pancreatic cancer vs 30 healthy subjects, 25° C. 2 hours
  AUC of ROC curve for the ratio of the number of wells belonging to the two peaks (DPP4 considered enclosed): 0.724

## CSCC[C@H](N)C(=O)Nc1ccc2c(CP(=O)(O)O)cc(=O)oc2c1 [Met-PMAC]
CD13
  Fluorescence intensity of human plasma samples, patient with pancreatic cancer compared with healthy subject (CD13 probe): a significant difference was observed
  AUC of ROC curve for the number of wells in which CD13 is considered to be enclosed: 0.619

## NC1C=CN(C2CC(O)C(COP(=O)(O)Oc3ccc4c(CP(=O)(O)O)cc(=O)oc4c3)O2)C(=O)N1 (centres unmarked) [PMUM-dCMP]
ENPP3 [1]
  Fluorescence intensity (FI) on adding ENPP3 compared with adding no ENPP3: remarkable increase in fluorescence intensity
ENPP3 [2]; microdevice, 100 μM probe, 500 fold dilution plasma
  Fluorescence intensity of human plasma samples, patient with pancreatic cancer compared with healthy subject (ENPP probe): a significant difference was observed
ENPP3 [2]; plasma of six patients and six healthy subjects, 100 μM probe, 500 fold dilution plasma, 25° C. 40 minutes
  Number of wells with fluorescence intensity equal to or higher than 2500 AU, patients with pancreatic cancer compared with healthy subjects: significant increase in the number of wells
ENPP3 [2]; [3]
  Sensitivity of ROC determination of pancreatic cancer: 83%
  Specificity of ROC determination of pancreatic cancer: 100%
